Activity calls are given as the source filed them. The rule behind the calls is not given here.
Experiments:
[1] = target: Histamine H4 receptor (Homo sapiens, UniProt Q9H3N8); experiment: Displacement of [3H]histamine from human histamine H4 receptor
[2] = target: T1, Histamine H3 receptor (Homo sapiens, UniProt Q9Y5N1); experiment: Agonist activity at human histamine H3 receptor in SK-N-MC cells assessed as inhibition of forskolin-induced cAMP-mediated CRE-beta galactosidase activity; assay type: functional, cell-based
T1 sequence (Q9Y5N1 whole entry): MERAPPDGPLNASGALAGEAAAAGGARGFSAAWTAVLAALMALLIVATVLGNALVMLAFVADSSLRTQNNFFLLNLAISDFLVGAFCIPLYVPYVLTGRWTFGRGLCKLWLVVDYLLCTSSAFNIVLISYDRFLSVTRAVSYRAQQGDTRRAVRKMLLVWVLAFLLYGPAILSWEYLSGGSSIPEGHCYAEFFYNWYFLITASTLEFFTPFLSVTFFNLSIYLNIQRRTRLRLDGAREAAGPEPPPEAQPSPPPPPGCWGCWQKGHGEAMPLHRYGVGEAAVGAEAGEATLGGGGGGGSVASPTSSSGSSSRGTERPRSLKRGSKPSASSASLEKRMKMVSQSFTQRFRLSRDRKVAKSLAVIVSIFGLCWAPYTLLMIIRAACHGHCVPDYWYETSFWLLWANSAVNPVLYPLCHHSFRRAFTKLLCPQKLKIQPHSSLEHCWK

[3] = target: Histamine H1 receptor (Homo sapiens) (UniProt P35367); experiment: Agonist activity at human histamine H1 receptor at 100 uM; assay type: functional
Histamine H1 receptor (Homo sapiens), sequence (P35367 whole entry): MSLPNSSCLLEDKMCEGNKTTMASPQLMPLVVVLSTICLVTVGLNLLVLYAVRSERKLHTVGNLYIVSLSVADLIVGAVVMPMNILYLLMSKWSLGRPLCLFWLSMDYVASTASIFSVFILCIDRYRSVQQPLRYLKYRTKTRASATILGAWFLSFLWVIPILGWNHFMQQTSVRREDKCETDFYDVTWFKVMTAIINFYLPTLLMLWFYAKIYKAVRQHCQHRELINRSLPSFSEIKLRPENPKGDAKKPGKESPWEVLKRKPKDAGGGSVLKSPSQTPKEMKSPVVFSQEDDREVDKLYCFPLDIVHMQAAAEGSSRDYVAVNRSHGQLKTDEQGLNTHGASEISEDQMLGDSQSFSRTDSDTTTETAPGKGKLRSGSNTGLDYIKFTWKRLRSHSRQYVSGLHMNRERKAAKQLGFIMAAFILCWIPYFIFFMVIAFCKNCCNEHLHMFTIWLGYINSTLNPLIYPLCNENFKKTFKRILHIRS

[4] = target: Histamine H2 receptor (Homo sapiens) (UniProt P25021); experiment: Agonist activity at human histamine H2 receptor; assay type: functional
Histamine H2 receptor (Homo sapiens), sequence (P25021 whole entry): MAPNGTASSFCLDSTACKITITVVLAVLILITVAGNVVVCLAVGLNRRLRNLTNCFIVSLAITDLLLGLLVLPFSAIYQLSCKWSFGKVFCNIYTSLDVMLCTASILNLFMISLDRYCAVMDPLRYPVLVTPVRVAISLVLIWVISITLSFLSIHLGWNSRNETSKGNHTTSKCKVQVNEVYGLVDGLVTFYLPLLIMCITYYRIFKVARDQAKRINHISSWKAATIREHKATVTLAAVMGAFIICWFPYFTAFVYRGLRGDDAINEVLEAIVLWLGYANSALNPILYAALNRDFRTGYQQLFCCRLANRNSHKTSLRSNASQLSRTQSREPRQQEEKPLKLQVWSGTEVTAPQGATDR

[5] = target: T1, Histamine H3 receptor; experiment: Displacement of [3H]Nalpha-methylhistamine from human histamine H3 receptor expressed in SK-N-MC cells; assay type: cell-based
[6] = target: Histamine H2 receptor (Cavia porcellus) (UniProt P47747); experiment: Activity at human histamine H2 receptor in guinea pig right atrium; assay type: functional, tissue-based; settings: Cardiac atrium
Histamine H2 receptor (Cavia porcellus), sequence (P47747 whole entry): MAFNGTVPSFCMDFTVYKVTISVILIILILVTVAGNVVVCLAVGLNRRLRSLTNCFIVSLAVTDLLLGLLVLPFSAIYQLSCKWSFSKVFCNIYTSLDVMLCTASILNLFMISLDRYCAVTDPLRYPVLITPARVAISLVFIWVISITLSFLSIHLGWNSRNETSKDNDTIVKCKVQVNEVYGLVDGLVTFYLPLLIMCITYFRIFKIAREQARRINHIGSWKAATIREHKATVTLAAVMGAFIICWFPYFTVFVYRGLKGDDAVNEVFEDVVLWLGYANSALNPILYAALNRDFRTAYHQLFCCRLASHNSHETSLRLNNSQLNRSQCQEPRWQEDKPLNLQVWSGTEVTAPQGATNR

Histamine H4 receptor, sequence (Q9H3N8 whole entry): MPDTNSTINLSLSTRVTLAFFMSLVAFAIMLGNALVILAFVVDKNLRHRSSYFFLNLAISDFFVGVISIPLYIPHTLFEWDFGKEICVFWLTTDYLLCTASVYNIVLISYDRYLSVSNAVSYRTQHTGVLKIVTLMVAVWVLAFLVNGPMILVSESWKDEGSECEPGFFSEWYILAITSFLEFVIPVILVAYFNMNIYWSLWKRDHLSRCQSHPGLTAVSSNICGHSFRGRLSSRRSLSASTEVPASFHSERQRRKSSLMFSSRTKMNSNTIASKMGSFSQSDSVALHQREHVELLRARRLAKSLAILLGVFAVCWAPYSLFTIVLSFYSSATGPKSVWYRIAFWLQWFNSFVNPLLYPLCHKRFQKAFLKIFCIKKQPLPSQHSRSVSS

Molecule N=C(N)NCCCSC(=N)N has a Ki [1] of 7.94 µM.

Work on N=C(N)SCCSC(=N)N yielded a Ki [1] of 0.251 µM.

Molecule N=C(N)NCCCCCCSC(=N)N has a Ki [1] of 3.98 µM.

N=C(N)NCCSC(=N)N was tested, and the Intrinsic activity [2] was 1, the Activity [3] was “inactive” and the Activity [4] was 50%. The Ki [5] was 1 µM, the Intrinsic activity [6] was 0.4 and the pD2 [6] was 3.8.

In the case of N=C(N)NCCCCSC(=N)N, the Ki [1] is reported as 3.16 µM.

N=C(N)NCCNC(=N)N gave a Ki [1] of 0.398 µM.

Source: ChEMBL document CHEMBL1137316, “Discovery of S-(2-guanidylethyl)-isothiourea (VUF 8430) as a potent nonimidazole histamine H4 receptor agonist” (J Med Chem, 2006)
